Assay results taken from patent US10858342B2, “Bicyclic imidazole derivatives useful for the treatment of renal diseases, cardiovascular diseases and fibrotic diseases” (Boehringer Ingelheim International GmbH, priority 2016, dated 2020).
Like-named read-outs stand apart in the source and are kept apart here.

Tests used:
Assay type in all cases: biochemical, cynomolgus monkey
[1] = tested on: aldosterone synthase (CYP11B2); test: Inhibition of aldosterone synthase (cynomolgus adrenal mitochondria, aldosterone by mass spectrometry); conditions: selectivity for aldosterone synthase inhibition over cortisol synthase (CYP11B1) inhibition, fold
How it was run: (§1)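 Cynomolgus adrenal mitochondria (50 units CYP11B2 activity) incubated with 2 μM corticosterone in 100 mM potassium phosphate pH 7.4, 1% DMSO; started with 1 mM NADPH, 90 min at 37 °C. Aldosterone quantified by mass spectrometry; no-NADPH blank as 0%, no-compound as 100% activity, across compound concentrations.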

[2] = molecular target: aldosterone synthase (CYP11B2) (Macaca fascicularis, UniProt A0A2K5UPL9); test: as above; conditions: 2 μM corticosterone substrate, 50 units CYP11B2, 90 min, 37° C.; read-out: Aldosterone Inhibition IC50
How it was run: as §1

[3] = molecular target: cortisol synthase (CYP11B1) (Macaca fascicularis, UniProt A0A2K5ULY1); test: Inhibition of cortisol synthesis (cynomolgus adrenal mitochondria, cortisol by mass spectrometry)
How it was run: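 Cynomolgus adrenal mitochondria (150 units CYP11B1 activity) incubated with 11-deoxycortisol in 100 mM potassium phosphate pH 7.4, 1% DMSO; reaction started with 1 mM NADPH, 90 min at 37° C, stopped with MeCN. Cortisol quantified by mass spectrometry; IC50 from 4-parameter logistic fit versus no-compound (100%) and no-NADPH (0%) controls.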

[4] = 11-deoxycortisol substrate, 150 units CYP11B1; read-out: Cortisol Inhibition IC50
[5] = read-out: Cortisol Inhibition IC50; 11-deoxycortisol substrate, 150 units CYP11B1

Chain of aldosterone synthase (CYP11B2) (Macaca fascicularis, UniProt A0A2K5UPL9) (A0A2K5UPL9 1-503): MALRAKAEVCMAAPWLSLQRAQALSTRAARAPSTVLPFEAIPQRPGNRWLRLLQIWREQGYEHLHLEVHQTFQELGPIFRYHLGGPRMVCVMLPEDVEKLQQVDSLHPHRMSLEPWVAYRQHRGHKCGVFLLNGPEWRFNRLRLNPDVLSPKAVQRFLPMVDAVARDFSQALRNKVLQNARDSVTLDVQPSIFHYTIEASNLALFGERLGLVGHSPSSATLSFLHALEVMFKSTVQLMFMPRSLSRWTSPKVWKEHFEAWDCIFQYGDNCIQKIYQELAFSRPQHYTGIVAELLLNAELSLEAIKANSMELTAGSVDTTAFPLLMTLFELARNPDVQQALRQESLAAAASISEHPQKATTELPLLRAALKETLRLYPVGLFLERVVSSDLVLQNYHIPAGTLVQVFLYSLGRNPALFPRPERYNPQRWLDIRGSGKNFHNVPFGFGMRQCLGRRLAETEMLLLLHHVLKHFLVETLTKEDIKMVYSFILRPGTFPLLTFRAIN

Row | Compound | Selectivity [1] | IC50 [2] [nM] | IC50 [3, 4] [µM] | IC50 [3, 5] [µM]
1 | N#Cc1ccc(-n2cnc3c2C(=O)CCC3)cc1 [C-AAL, 4-(7-Oxo-4,5,6,7-tetrahydro-benzoimidazol-1-yl)-benzonitrile] | 250 | 19 | 4.6 | –
2 | O=C1CCCc2ncn(-c3ccc4c(c3)OCCO4)c21 [C-AAI, 3-(2,3-Dihydro-benzo[1,4]dioxin-6-yl)-3,5,6,7-tetrahydro-benzoimidazol-4-one] | 180 | 160 | > 30 | –
3 | O=C1CCCc2ncn(C3CCc4ccccc4C3)c21 (stereo not drawn) [C-ADJ, 3-(1,2,3,4-Tetrahydro-naphthalen-2-yl)-3,5,6,7-tetrahydro-benzoimidazol-4-one] | 420 | 2.8 | 1.2 | –
4 | COc1ccc(Cn2cnc3c2C(=O)CC(C)(C)C3)cc1 [C-ADQ, 3-(4-Methoxy-benzyl)-6,6-dimethyl-3,5,6,7-tetrahydro-benzoimidazol-4-one] | 22 | 96 | 2.1 | –
5 | CC1(C)CC(=O)c2c(ncn2C2CC3(COC3)C2)C1 [C-ACT, 6,6-Dimethyl-3-(2-oxa-spiro[3.3]hept-6-yl)-3,5,6,7-tetrahydro-benzoimidazol-4-one] | 38 | 780 | > 30 | –
6 | COc1ccc(-n2cnc3c2C(=O)CC(C)(C)C3)cc1 [C-ABR, 3-(4-Methoxy-phenyl)-6,6-dimethyl-3,5,6,7-tetrahydro-benzoimidazol-4-one] | 150 | 130 | 21 | –
7 | CC1(C)CC(=O)c2c(ncn2Cc2ccccc2)C1 [C-ADR, 3-Benzyl-6,6-dimethyl-3,5,6,7-tetrahydro-benzoimidazol-4-one] | 97 | 97 | 9.4 | –
8 | CC1(C)CC(=O)c2c(ncn2C2CCc3ccccc32)C1 (stereo not drawn) [C-ACQ, 3-Indan-1-yl-6,6-dimethyl-3,5,6,7-tetrahydro-benzoimidazol-4-one] | 130 | 220 | > 30 | –
9 | CC1(C)CC(=O)c2c(ncn2[C@H]2C[C@@H]3CC[C@H]2C3)C1 [C-ACL, 3-(1S,2S,3R)-Bicyclo[2.2.1]hept-2-1-6,6-dimethyl-3,5,6,7-tetrahydro-benzoimidazol-4-one] | 87 | 180 | 16 | –
10 | N#Cc1ccc(-n2cnc3c2C(=O)CC2(CC2)C3)cc1 [C-AAX, 3-(4-Cyanophenyl)-6,6-spirocyclpropyl-3,5,6,7-tetrahydro-benzimidazol-4-one] | 230 | 8.5 | 1.9 | –
11 | CC1(C)CC(=O)c2c(ncn2-c2cccc(C(F)(F)F)c2)C1 [C-ABZ, 6,6-Dimethyl-3-(3-trifluoromethyl-phenyl)-3,5,6,7-tetrahydro-benzoimidazol-4-one] | 370 | 73 | 27 | –
12 | Cc1cc(-n2cnc3c2C(=O)CC2(CCC2)C3)ccc1C#N [C-AAU, 2-Methyl-4-(7-oxospiro[4,6-dihydrobenzimidazole-5,1′-cyclobutan]-1-yl)benzonitrile] | 5.0 | 10 | 0.051 | –
13 | CC1(C)CC(=O)c2c(ncn2-c2ccc(Cl)cc2)C1 [C-ABN, 3-(4-Chloro-phenyl)-6,6-dimethyl-3,5,6,7-tetrahydro-benzoimidazol-4-one] | 67 | 15 | 1 | –
14 | O=C1CCCc2ncn(-c3ccc4c(c3)COC4)c21 [C-AAB, 3-(1,3-Dihydro-isobenzofuran-5-yl)-3,5,6,7-tetrahydro-benzoimidazol-4-one] | 270 | 85 | 23 | –
15 | N#Cc1ccc(-n2cnc3c2C(=O)C[C@H](C(N)=O)C3)cc1Cl [C-AEB-B, (R)-1-(3-Chloro-4-cyano-phenyl)-7-oxo-4,5,6,7-tetrahydro-1H-benzoimidazole-5-carboxylic acid amide] | 940 | 32 | – | > 30
16 | COc1ccc2c(c1)CCC(n1cnc3c1C(=O)CC(C)(C)C3)C2 (stereo not drawn) [C-ACN, 3-(6-Methoxy-1,2,3,4-tetrahydro-naphthalen-2-yl)-6,6-dimethyl-3,5,6,7-tetrahydro-benzoimidazol-4-one] | 460 | 24 | 11 | –
17 | CC1(C)CC(=O)c2c(ncn2Cc2ccc(F)cc2)C1 [C-ADO, 3-(4-Fluoro-benzyl)-6,6-dimethyl-3,5,6,7-tetrahydro-benzoimidazol-4-one] | 96 | 56 | 5.4 | –
18 | CN1C(=O)CCc2cc(-n3cnc4c3C(=O)CC3(CCOCC3)C4)ccc21 [C-AAP, 3-(1-Methyl-2-oxo-3,4-dihydroquinolin-6-yl)spiro[5,7-dihydrobenzoimidazole-6,4′-tetrahydropyran]-4-one] | 65 | 460 | > 30 | –
19 | CC1(C)CC(=O)c2c(ncn2-c2ccc(C(F)(F)F)cc2)C1 [C-ACI, 6,6-Dimethyl-3-(4-trifluoromethyl-phenyl)-3,5,6,7-tetrahydro-benzoimidazol-4-one] | 290 | 62 | 18 | –
20 | CN1C(=O)COc2cc(-n3cnc4c3C(=O)CCC4)ccc21 [C-AAN, 4-Methyl-7-(7-oxo-4,5,6,7-tetrahydro-benzoimidazol-1-yl)-4H-benzo[1,4]oxazin-3-one] | 360 | 84 | > 30 | –
21 | CC1(C)CC(=O)c2c(ncn2-c2ccc(F)cc2)C1 [C-ABP, 3-(4-Fluoro-phenyl)-6,6-dimethyl-3,5,6,7-tetrahydro-benzoimidazol-4-one] | 52 | 21 | 1.1 | –
22 | CN1C(=O)CCc2cc(-n3cnc4c3C(=O)CC3(CC3)C4)ccc21 [C-ACH, 3-(1-Methyl-2-oxo-3,4-dihydroquinolin-6-yl)spiro[5,7-dihydrobenzimidazole-6,1′-cyclopropane]-4-one] | 300 | 16 | 4.9 | –
23 | CC1(C)CC(=O)c2c(ncn2CC2CCOC2)C1 (stereo not drawn) [C-ACX, 6,6-Dimethyl-3-(tetrahydro-furan-3-ylmethyl)-3,5,6,7-tetrahydro-benzoimidazol-4-one] | 35 | 870 | > 30 | –
24 | CC1(C)CC(=O)c2c(ncn2-c2ccc(C#N)cc2)C1 [C-ABX, 4-(5,5-Dimethyl-7-oxo-4,5,6,7-tetrahydro-benzoimidazol-1-yl)-benzonitrile] | 80 | 17 | 1.3 | –
25 | N#Cc1ccc(-n2cnc3c2C(=O)CCC3)cc1Cl [C-AEA, 2-Chloro-4-(7-oxo-4,5,6,7-tetrahydro-benzoimidazol-1-yl)-benzonitrile] | 130 | 8.7 | – | 1.1
26 | CC1(C)CC(=O)c2c(ncn2Cc2ccc(C(=O)NCCS(C)(=O)=O)cc2)C1 [C-ADU, 4-(5,5-Dimethyl-7-oxo-4,5,6,7-tetrahydro-benzoimidazol-1-ylmethyl)-N-(2-methanesulfonyl-ethyl)-benzamide] | 30 | 210 | 6.2 | –
